Consider 51 compounds from US10208045B2, “Aza-pyridone compounds and uses thereof” (Alios BioPharma, Inc., priority 2015, dated 2019).

pEC50, pIC50: −log10 of the molar value.

Experiment [1] deals with Full length EN PA (influenza endonuclease) (Influenza A virus, UniProt P15659). The experiment in a line: EN PA FRET inhibition assay. Particulars: 50 Nm FRET probe, mean of a minimum of two independent experiments, read-out: Potency (IC50 class). Type of experiment: biochemical.
For experiment [2], the system named is Influenza strain A549_A/WSN/33 (H1N1). Description: Influenza antiviral assay (neuraminidase fluorescence readout in A549 or MDCK cells). Type of experiment: cell-based. The following applies: Influenza A virus, read-out: % Inhibition (EC50 class).

`CCCN1C[C@H](C(c2cccc(F)c2)c2cccc(F)c2)n2ncc(=O)c(OC(C)=O)c2C1=O` (single isomer, unassigned) [Compound 1]: the pIC50 in experiment [1] is more than 6.60. In addition, the pEC50 in experiment [2] was more than 4.70.
With `CN1C[C@H]([C@@H](c2ccccc2)n2cc(C#CC3CC3)c(C#CC3CC3)n2)n2ncc(=O)c(O)c2C1=O` (single isomer, unassigned) [Compound 13], the pIC50 in experiment [1] was more than 6.60. In addition, in experiment [2], the negative-log EC50 (pEC50) was more than 4.70.
As to `CN1C[C@H]([C@@H](c2ccccc2)n2cc(C#CCO)c(C#CCO)n2)n2ncc(=O)c(O)c2C1=O` (single isomer, unassigned) [Compound 14], the negative-log IC50 (pIC50) in experiment [1] was more than 6.60. Also, in experiment [2], the pEC50 was more than 4.70.
Consider `CC(C)OC(=O)OCOc1c2n(ncc1=O)[C@@H](C(c1ccccc1)c1ccccc1)CN(C(C)C)C2=O` [Compound 2], for which, in experiment [1], the pIC50 is not above 6.00. Further, the pEC50 in experiment [2] is more than 4.70.
On the same counts, the results for `CC(=O)Oc1c2n(ncc1=O)[C@@H](C1c3cccc(F)c3CCc3c(F)cccc31)CN(C(C)C)C2=O` [Compound 3] are more than 6.60 and more than 4.70.
On the same counts, the results for `CC(C)N1C[C@H](C(c2ccccc2)c2ccccc2)n2ncc(=O)c(O[C@@H]3OC(C(=O)O)[C@@H](O)C(O)C3O)c2C1=O` (stereo partly drawn) [Compound 4] are more than 6.60 and more than 4.70.
The corresponding values for `CN1CC(C(c2ccccc2)c2cn(C)c3cc(F)ccc23)n2ncc(=O)c(O)c2C1=O` (stereo not drawn) [Compound 5] are more than 6.60 and more than 4.70.
Take `CCn1cc([C@@H](c2ccccc2)[C@H]2CN(C)C(=O)c3c(O)c(=O)cnn32)c2ccc(Br)cc21` [Compound 6]: the negative logarithm of the IC50 (pIC50) in experiment [1] is 6.00 to 6.60. Besides, the negative logarithm of the EC50 (pEC50) in experiment [2] was more than 4.70.
On to `CN1C[C@H]([C@@H](c2ccccc2)n2cc(I)c(I)n2)n2ncc(=O)c(O)c2C1=O` [Compound 7], for which the negative logarithm of the IC50 (pIC50) in experiment [1] was more than 6.60. The negative logarithm of the EC50 (pEC50) in experiment [2] was more than 4.70.
On the same counts, the results for `CN1C[C@H]([C@H](c2ccccc2)n2cc(I)c(I)n2)n2ncc(=O)c(O)c2C1=O` [Compound 8] are more than 6.60 and more than 4.70.
Take `CC(C)N1C[C@H](C(c2cccs2)c2cccs2)n2ncc(=O)c(O)c2C1=O` [Compound 9]: the negative logarithm of the IC50 (pIC50) in experiment [1] is more than 6.60. Also, the pEC50 in experiment [2] was more than 4.70.
The corresponding values for `O=C1NC[C@H](C(c2ccccc2)c2ccccc2)n2ncc(=O)c(O)c21` [Compound 10] are more than 6.60 and more than 4.70.
Take `C#Cc1cccc(C(c2cccc(C#C)c2)C2CN(C(C)C)C(=O)c3c(O)c(=O)cnn32)c1` (stereo not drawn) [Compound 11]: the pIC50 in experiment [1] is more than 6.60. Moreover, the pEC50 in experiment [2] is more than 4.70.
The corresponding values for `CC#Cc1cn([C@@H](c2ccccc2)[C@H]2CN(C)C(=O)c3c(O)c(=O)cnn32)nc1C#CC` [Compound 12] are 6.00 to 6.60 and more than 4.70.
Regarding `C#Cc1cccc([C@@H](c2ccccc2)[C@H]2CN(C(C)C)C(=O)c3c(O)c(=O)cnn32)c1` [Compound 15], the pIC50 in experiment [1] was more than 6.60. The pEC50 in experiment [2] was more than 4.70.
Turning to `C#Cc1cn([C@@H](c2ccccc2)[C@H]2CN(C)C(=O)c3c(O)c(=O)cnn32)nc1C#C` [Compound 16], the negative-log IC50 (pIC50) in experiment [1] is more than 6.60. In addition, the pEC50 in experiment [2] was more than 4.70.
For the compound `[2H]C([2H])([2H])C([2H])(N1C[C@H](C(c2ccccc2)c2ccccc2)n2ncc(=O)c(O)c2C1=O)C([2H])([2H])[2H]` [Compound 17], the pIC50 in experiment [1] was more than 6.60. For the same compound, the pEC50 in experiment [2] is more than 4.70.
Take `CCCCN1C[C@H](C(c2ccccc2)c2ccccc2)n2ncc(=O)c(O)c2C1=O` [Compound 18]: the pIC50 in experiment [1] was more than 6.60. In experiment [2], the pEC50 was more than 4.70.
In the case of `CCCN1C[C@H](C2c3ccccc3CCc3ccccc32)n2ncc(=O)c(O)c2C1=O` [Compound 19], the pIC50 in experiment [1] is more than 6.60. Moreover, the negative logarithm of the EC50 (pEC50) in experiment [2] is more than 4.70.
The corresponding values for `CCCN1C[C@@H](C2c3ccccc3CCc3ccccc32)n2ncc(=O)c(O)c2C1=O` [Compound 20] are 6.00 to 6.60 and more than 4.70.
The corresponding values for `CCCN1C[C@H](C2c3cccc(F)c3CCc3c(F)cccc32)n2ncc(=O)c(O)c2C1=O` [Compound 21] are more than 6.60 and more than 4.70.
Regarding `CCCN1C[C@@H](C2c3cccc(F)c3CCc3c(F)cccc32)n2ncc(=O)c(O)c2C1=O` [Compound 22], the pIC50 in experiment [1] was not above 6.00. Further, the negative logarithm of the EC50 (pEC50) in experiment [2] was more than 4.70.
With `CC(C)C(=O)Oc1c2n(ncc1=O)[C@@H](C1c3ccccc3CCc3ccccc31)CN(C(C)C)C2=O` [Compound 23], the negative-log IC50 (pIC50) in experiment [1] is more than 6.60. In addition, the pEC50 in experiment [2] is more than 4.70.
Regarding `CC(=O)Oc1c2n(ncc1=O)[C@@H](C1c3ccccc3CCc3ccccc31)CN(C(C)C)C2=O` [Compound 24], the pIC50 in experiment [1] is more than 6.60. For the same compound, the pEC50 in experiment [2] was more than 4.70.
On the same counts, the results for `CCCN1C[C@H](C2c3ccccc3CCc3ccccc32)n2ncc(=O)c(OC(C)=O)c2C1=O` [Compound 25] are more than 6.60 and more than 4.70.
On to `CCCN1C[C@H](C2c3ccccc3CCc3ccccc32)n2ncc(=O)c(OC(=O)C(C)C)c2C1=O` [Compound 26], for which the negative-log IC50 (pIC50) in experiment [1] was more than 6.60. In addition, the pEC50 in experiment [2] was more than 4.70.
With `CCN1C[C@H](C2c3ccccc3CCc3ccccc32)n2ncc(=O)c(OC(C)=O)c2C1=O` [Compound 27], the negative-log IC50 (pIC50) in experiment [1] was more than 6.60. In addition, in experiment [2], the negative logarithm of the EC50 (pEC50) was more than 4.70.
In the case of `CCN1C[C@H](C2c3ccccc3CCc3ccccc32)n2ncc(=O)c(OC(=O)C(C)C)c2C1=O` [Compound 28], in experiment [1], the pIC50 is more than 6.60.
On to `CCCN1C[C@H](C2c3cccc(F)c3CCc3c(F)cccc32)n2ncc(=O)c(OC(C)=O)c2C1=O` [Compound 29], for which the negative-log IC50 (pIC50) in experiment [1] was more than 6.60. Also, the negative-log EC50 (pEC50) in experiment [2] is more than 4.70.
`CC(C)OC(=O)Oc1c2n(ncc1=O)[C@@H](C1c3cccc(F)c3CCc3c(F)cccc31)CN(C(C)C)C2=O` [Compound 30]: the negative logarithm of the IC50 (pIC50) in experiment [1] is more than 6.60. The pEC50 in experiment [2] is more than 4.70.
Turning to `CC(C)COC(=O)Oc1c2n(ncc1=O)[C@@H](C1c3cccc(F)c3CCc3c(F)cccc31)CN(C(C)C)C2=O` [Compound 31], in experiment [1], the negative-log IC50 (pIC50) was more than 6.60. In experiment [2], the negative logarithm of the EC50 (pEC50) is more than 4.70.
The corresponding values for `CC(C)N1C[C@H]([C@@H](c2ccccc2)n2cc(C#CC3CC3)c(C#CC3CC3)n2)n2ncc(=O)c(O)c2C1=O` [Compound 33] are 6.00 to 6.60 and more than 4.70.
The corresponding values for `CC(C)N1C[C@H]([C@@H](c2ccccc2)n2cc(C#CCO)c(C#CCO)n2)n2ncc(=O)c(O)c2C1=O` [Compound 34] are more than 6.60 and more than 4.70.
On the same counts, the results for `CN1C[C@H]([C@H](c2ccccc2)n2cc(C#CC3CC3)c(C#CC3CC3)n2)n2ncc(=O)c(O)c2C1=O` [Compound 35] are not above 6.00 and more than 4.70.
Consider `CN1C[C@H]([C@H](c2ccccc2)n2cc(C#CCO)c(C#CCO)n2)n2ncc(=O)c(O)c2C1=O` [Compound 36], for which, in experiment [1], the pIC50 is more than 6.60. Further, the pEC50 in experiment [2] is more than 4.70.
On to `Cc1cccc(C(c2cccc(C)c2)[C@H]2CN(C(C)C)C(=O)c3c(O)c(=O)cnn32)c1` [Compound 37], for which the pIC50 in experiment [1] was more than 6.60. Further, the negative-log EC50 (pEC50) in experiment [2] was more than 4.70.
For the compound `O=C1c2c(O)c(=O)cnn2[C@@H](C(c2ccccc2)c2ccccc2)CN1Cc1ccccc1` [Compound 38], in experiment [1], the negative logarithm of the IC50 (pIC50) is more than 6.60. For the same compound, in experiment [2], the pEC50 is more than 4.70.
In the case of `CC(C)[C@H](N)C(=O)OCOc1c2n(ncc1=O)[C@@H](C1c3cccc(F)c3CCc3c(F)cccc31)CN(C(C)C)C2=O` [Compound 39], the pIC50 in experiment [1] was more than 6.60. In experiment [2], the negative-log EC50 (pEC50) was more than 4.70.
On the same counts, the results for `CC(C)[C@H](N)C(=O)OCOc1c2n(ncc1=O)[C@@H](C1c3ccccc3CCc3ccccc31)CN(C(C)C)C2=O` [Compound 40] are more than 6.60 and more than 4.70.
On the same counts, the results for `CC(C)OC(=O)OCOc1c2n(ncc1=O)[C@@H](C1c3cccc(F)c3CCc3c(F)cccc31)CN(C(C)C)C2=O` [Compound 41] are more than 6.60 and more than 4.70.
For `CN1C[C@H]([C@H](c2ccccc2)n2cc(C#CC3(O)CCC3)c(C#CC3(O)CCC3)n2)n2ncc(=O)c(O)c2C1=O` [Compound 46], in experiment [1], the negative logarithm of the IC50 (pIC50) is 6.00 to 6.60. In experiment [2], the negative logarithm of the EC50 (pEC50) is 4.00 to 4.70.
Take `CCn1cc([C@@H](c2ccccc2)[C@H]2CN(C)C(=O)c3c(O)c(=O)cnn32)c2ccc(CO)cc21` [Compound 48]: the pIC50 in experiment [1] is not above 6.00.
Still for that read-out and setting: under `CCn1cc([C@H](c2ccccc2)[C@H]2CN(C)C(=O)c3c(O)c(=O)cnn32)c2ccc(CO)cc21` [Compound 49] stands not above 6.00.
With `CCCN1C[C@H](C(c2cccc(Cl)c2)c2cccc(Cl)c2)n2ncc(=O)c(OC(C)=O)c2C1=O` [Compound 54], the negative logarithm of the IC50 (pIC50) in experiment [1] was more than 6.60. For the same compound, the negative-log EC50 (pEC50) in experiment [2] was more than 4.70.
Take `CCCN1C[C@H](C2c3cccc(Cl)c3CCc3c(Cl)cccc32)n2ncc(=O)c(O)c2C1=O` [Compound 99]: the pIC50 in experiment [1] was more than 6.60. Further, the pEC50 in experiment [2] is more than 4.70.
With `CN1C[C@H](C2c3cccc(Cl)c3CCc3c(Cl)cccc32)n2ncc(=O)c(O)c2C1=O` [Compound 100], the pIC50 in experiment [1] is more than 6.60. In addition, in experiment [2], the pEC50 is more than 4.70.
For `CC(C)N1C[C@H](C2c3ccc(F)cc3CCc3cc(F)ccc32)n2ncc(=O)c(O)c2C1=O` [Compound 101], the pIC50 in experiment [1] is more than 6.60. In experiment [2], the negative-log EC50 (pEC50) is more than 4.70.
Take `CCCN1C[C@H](C2c3ccc(F)cc3CCc3cc(F)ccc32)n2ncc(=O)c(O)c2C1=O` [Compound 102]: the negative-log IC50 (pIC50) in experiment [1] was more than 6.60. For the same compound, in experiment [2], the pEC50 was more than 4.70.
On to `CC(C)N1C[C@H](C2c3ccc(Cl)cc3CCc3cc(Cl)ccc32)n2ncc(=O)c(O)c2C1=O` [Compound 103], for which, in experiment [1], the pIC50 is more than 6.60. The pEC50 in experiment [2] was more than 4.70.
On to `CCCN1C[C@H](C2c3ccc(Cl)cc3CCc3cc(Cl)ccc32)n2ncc(=O)c(O)c2C1=O` [Compound 104], for which the pIC50 in experiment [1] is more than 6.60. Moreover, the pEC50 in experiment [2] was more than 4.70.
As for `CC(=O)Oc1c2n(ncc1=O)[C@@H](C(c1cccc(Cl)c1)c1cccc(Cl)c1)CN(C(C)C)C2=O` [Compound 107], in experiment [1], the pIC50 was more than 6.60. In experiment [2], the pEC50 is more than 4.70.

A word on the pIC50: it is the negative decadic logarithm of the IC50, by convention in mol/L. Usually pEC50 stands for −log10 of the EC50, conventionally taken in molar units.
